According to US20240074996A1, “C5 KETONE COMPOSITIONS AND RELATED METHODS FOR TREATING METABOLIC DYSFUNCTION” (Keto Innovations, LLC, priority 2018, published 2024):
Read-outs that look alike come from different tables or passages of the source.

Columns and labels:
[1] = cited from earlier work
[2] = Visual analog scale of focus after BHP or BKP (Example 1); assay type: in vivo, human; conditions: scale 1-10, 10 g oral, 12 h fast
Description: (§1) Two (2) healthy, male subjects reported to the laboratory following a 12 hour overnight fast. Subjects were instructed to randomly consume either 10 grams of BHP or 10 grams BKP dissolved in 12 ounces of water. Subjects were then monitored for 150 minutes following drinking the mixture. Blood glucose, ketones, and visual analog scales (VAS) of well-being, energy, and focus were taken at 0, 30, 60, 90, 120, and 150 minutes. VAS scales consisted of a continuum of numbers from 1-10 with 1 being extremely low and 10 being extremely high.

[3] = Borg Rating of Perceived Exertion during cycling exercise (Example 2); assay type: in vivo, human; conditions: 10 grams
Text: The purpose of this experiment was to see if C5 ketones could lower exertion during moderate and high intensity cycling exercise. Five (5) college aged males were given a placebo or BKP (10 grams) prior to and during 2-minute low, moderate and high intensity cycling bouts. […] Perceived exertion is how hard one feels like the body is working.

[4] = Blood glucose after oral BHP or BKP (Example 1); assay type: in vivo, human; conditions: 10 g oral in water, 12 h fast
Description: as §1
(§2) Blood ketones were measured via finger prick using an Abbott Precision device which determines mMol of BHB. Blood glucose was measured using Abbott Precision glucose strips and was measured in mg/dL.

[5] = Visual analog scale of well-being after BHP or BKP (Example 1); assay type: in vivo, human; conditions: scale 1-10, 10 g oral, 12 h fast
Description: as §1

[6] = Blood ketones (BHB, Abbott Precision) after oral BHP or BKP (Example 1); assay type: in vivo, human; conditions: 10 g oral in water, 12 h fast
Description: as §1, §2

[7] = Visual analog scale of energy after BHP or BKP (Example 1); assay type: in vivo, human; conditions: scale 1-10, 10 g oral, 12 h fast
Description: as §1

CC[C@@H](O)CC(=O)O [(R)-B-hydroxypentanoate]
Utilisation after intravenous administration ([1]; nondiabetic animals, intravenous, doses corresponding to 75% of the energy requirement (Leclerc et al 1995)): very rapidly used

CCC(=O)CC(=O)O [BKP, β-ketopentanoate]
Utilisation after intravenous administration ([1]; in vivo, iv): very rapidly used | Metabolism and tolerance in animals ([1]; in vivo): well metabolized in animals without apparent intolerance | VAS of Focus ([2]; Combined, 0 min.): 5.5 | VAS of Focus ([2]; Combined, 30 min.): 5.5 | VAS of Focus ([2]; Combined, 60 min.): 6 | VAS of Focus ([2]; Combined, 90 min.): 6.5 | VAS of Focus ([2]; Combined, 120 min.): 7 | VAS of Focus ([2]; Combined, 150 min.): 7 | VAS of Focus ([2]; Subject 1, 0 min.): 6 | VAS of Focus ([2]; Subject 1, 30 min.): 5 | VAS of Focus ([2]; Subject 1, 60 min.): 7 | VAS of Focus ([2]; Subject 1, 90 min.): 7 | VAS of Focus ([2]; Subject 1, 120 min.): 7 | VAS of Focus ([2]; Subject 1, 150 min.): 8 | VAS of Focus ([2]; Subject 2, 0 min.): 5 | VAS of Focus ([2]; Subject 2, 30 min.): 6 | VAS of Focus ([2]; Subject 2, 60 min.): 5 | VAS of Focus ([2]; Subject 2, 90 min.): 6 | VAS of Focus ([2]; Subject 2, 120 min.): 7 | VAS of Focus ([2]; Subject 2, 150 min.): 6 | Rating of Perceived Exertion (RPE) High Intensity ([3]; college aged males, 2-minute cycling bout, High Intensity): 17 ± 2 | Rating of Perceived Exertion (RPE) Low Intensity ([3]; college aged males, 2-minute cycling bout, Low Intensity): 9 ± 1 | Rating of Perceived Exertion (RPE) Moderate Intensity ([3]; college aged males, 2-minute cycling bout, Moderate Intensity): 13 ± 2 | Rating of Perceived Exertion (RPE) 30 min.-Post ([3]; college aged males, cycling, 30 min.-Post): 8 ± 1 | Rating of Perceived Exertion (RPE) Baseline ([3]; college aged males, cycling, Baseline): 7 ± 1 | Perceived exertion compared to a placebo ([3]; moderate and high intensity cycling): lower perceived exertion at both moderate and high intensity exercise | Blood glucose levels ([4]; Combined, 0 min.): 89.5 mg/dL | Blood glucose levels ([4]; Combined, 30 min.): 87.5 mg/dL | Blood glucose levels ([4]; Combined, 60 min.): 81 mg/dL | Blood glucose levels ([4]; Combined, 90 min.): 79.5 mg/dL | Blood glucose levels ([4]; Combined, 120 min.): 87.5 mg/dL | Blood glucose levels ([4]; Combined, 150 min.): 84 mg/dL | Blood glucose levels ([4]; Subject 1, 0 min.): 88 mg/dL | Blood glucose levels ([4]; Subject 1, 30 min.): 84 mg/dL | Blood glucose levels ([4]; Subject 1, 60 min.): 79 mg/dL | Blood glucose levels ([4]; Subject 1, 90 min.): 83 mg/dL | Blood glucose levels ([4]; Subject 1, 120 min.): 85 mg/dL | Blood glucose levels ([4]; Subject 1, 150 min.): 87 mg/dL | Blood glucose levels ([4]; Subject 2, 0 min.): 91 mg/dL | Blood glucose levels ([4]; Subject 2, 30 min.): 91 mg/dL | Blood glucose levels ([4]; Subject 2, 60 min.): 83 mg/dL | Blood glucose levels ([4]; Subject 2, 90 min.): 76 mg/dL | Blood glucose levels ([4]; Subject 2, 120 min.): 90 mg/dL | Blood glucose levels ([4]; Subject 2, 150 min.): 81 mg/dL | VAS of Well-Being ([5]; Combined, 0 min.): 6.5 | VAS of Well-Being ([5]; Combined, 30 min.): 6.5 | VAS of Well-Being ([5]; Combined, 60 min.): 7.5 | VAS of Well-Being ([5]; Combined, 90 min.): 7.5 | VAS of Well-Being ([5]; Combined, 120 min.): 8 | VAS of Well-Being ([5]; Combined, 150 min.): 8 | VAS of Well-Being ([5]; Subject 1, 0 min.): 7 | VAS of Well-Being ([5]; Subject 1, 30 min.): 7 | VAS of Well-Being ([5]; Subject 1, 60 min.): 9 | VAS of Well-Being ([5]; Subject 1, 90 min.): 9 | VAS of Well-Being ([5]; Subject 1, 120 min.): 9 | VAS of Well-Being ([5]; Subject 1, 150 min.): 9 | VAS of Well-Being ([5]; Subject 2, 0 min.): 6 | VAS of Well-Being ([5]; Subject 2, 30 min.): 6 | VAS of Well-Being ([5]; Subject 2, 60 min.): 6 | VAS of Well-Being ([5]; Subject 2, 90 min.): 6 | VAS of Well-Being ([5]; Subject 2, 120 min.): 7 | VAS of Well-Being ([5]; Subject 2, 150 min.): 7 | Blood ketone levels ([6]; Combined, 0 min.): 0.1 mmol | Blood ketone levels ([6]; Combined, 30 min.): 0.1 mmol | Blood ketone levels ([6]; Combined, 60 min.): 0.2 mmol | Blood ketone levels ([6]; Combined, 90 min.): 0.1 mmol | Blood ketone levels ([6]; Combined, 120 min.): 0.1 mmol | Blood ketone levels ([6]; Combined, 150 min.): 0.1 mmol | Blood ketone levels ([6]; Subject 1, 0 min.): 0.1 mmol | Blood ketone levels ([6]; Subject 1, 30 min.): 0.1 mmol | Blood ketone levels ([6]; Subject 1, 60 min.): 0.2 mmol | Blood ketone levels ([6]; Subject 1, 90 min.): 0.1 mmol | Blood ketone levels ([6]; Subject 1, 120 min.): 0.1 mmol | Blood ketone levels ([6]; Subject 1, 150 min.): 0.1 mmol | Blood ketone levels ([6]; Subject 2, 0 min.): 0.1 mmol | Blood ketone levels ([6]; Subject 2, 30 min.): 0.1 mmol | Blood ketone levels ([6]; Subject 2, 60 min.): 0.2 mmol | Blood ketone levels ([6]; Subject 2, 90 min.): 0.1 mmol | Blood ketone levels ([6]; Subject 2, 120 min.): 0.1 mmol | Blood ketone levels ([6]; Subject 2, 150 min.): 0.1 mmol | VAS of Energy ([7]; Combined, 0 min.): 6 | VAS of Energy ([7]; Combined, 30 min.): 6.5 | VAS of Energy ([7]; Combined, 60 min.): 7 | VAS of Energy ([7]; Combined, 90 min.): 7 | VAS of Energy ([7]; Combined, 120 min.): 7.5 | VAS of Energy ([7]; Combined, 150 min.): 8 | VAS of Energy ([7]; Subject 1, 0 min.): 7 | VAS of Energy ([7]; Subject 1, 30 min.): 7 | VAS of Energy ([7]; Subject 1, 60 min.): 7 | VAS of Energy ([7]; Subject 1, 90 min.): 8 | VAS of Energy ([7]; Subject 1, 120 min.): 8 | VAS of Energy ([7]; Subject 1, 150 min.): 9 | VAS of Energy ([7]; Subject 2, 0 min.): 5 | VAS of Energy ([7]; Subject 2, 30 min.): 6 | VAS of Energy ([7]; Subject 2, 60 min.): 7 | VAS of Energy ([7]; Subject 2, 90 min.): 6 | VAS of Energy ([7]; Subject 2, 120 min.): 7 | VAS of Energy ([7]; Subject 2, 150 min.): 7
